Patent EP0528699B1, “Saishin N derivatives, process for their preparation and anti-ulcer agents containing them” (TOKYO TANABE COMPANY LIMITED, priority 1991, dated 1993)
Structures can show the parent of a compound that is named as a salt. Where two headings read alike, the source gives them in different places. Marks after values point to notes of the source that are not given here.

Columns and labels:
[1] = system: Water-Immersion stress-Induced Ulcers; experiment: Water-Immersion stress-Induced Ulcers; assay type: in vivo, male Wister rats; settings: Rattus norvegicus, po, 10 h, read-out: Water-Immersion Stress, inhibiting ratio; for inhibition in vivo at 20 mg/kg: dose 20 mg/kg orally 10 minutes before the exposure to stress; for inhibition in vivo at 50 mg/kg: dose 50 mg/kg orally 10 minutes before the exposure to stress
Description: (§1) Experiments on Hydrochloric acid-Ethanol-Induced Ulcers, Aspirin-Induced Ulcers, Water-Immersion stress-Induced Ulcers, Shay's Ulcers and Serotonin-Induced Ulcers were carried out using male Wister rats weighing about 200g in groups of six. Experiments on Ischemia-Reperfusion -Induced Gastric Lesions were carried out using male SD rats weighing about 250g in groups of six. Other than for the tests on Ischemia-Reperfusion-Induced Gastric Lesions Models, the test compounds were prepared by mixing thoroughly with polyethyleneglycol and 0.5% sodium carboxymethyl cellulose solution and emulsifying vigorously. Activities against respective ulcer models were evaluated by an inhibiting ratio obtained by dividing the difference between the ulceration indexes of the non-administered group and the test compound group by the non-administered group.
Each rat which had been fasted for 15 hours was immobilized in a stress cage and immersed to chest depth in a water bath at 21°C. Each rat was slaughtered after 10 hours, a length of ulcer formed at the fundus gland area of stomach was measured and ulceration index was calculated based on the length. The test compound was administered orally 10 minutes before the exposure to stress.
(§2) The results of Aspirin-Induced Ulcers, Water-immersion stress-Induced Ulcers, Shay's Ulcers, Serotonin-induced Ulcers and Ischemia-Reperfusion-Induced Gastric lesions are shown in Table 3.

[2] = system: Shay's Ulcers; experiment: Shay's Ulcers; assay type: in vivo, male Wister rats; settings: Rattus norvegicus, intraduodenal, 14 h, read-out: Shay, inhibiting ratio; for inhibition in vivo at 50 mg/kg: dose 50 mg/kg intraduodenally immediately after the ligation; for inhibition in vivo at 300 mg/kg: dose 300 mg/kg intraduodenally immediately after the ligation
Description: as §1
In each rat which had been fasted for 48 hours, the pyloric end of stomach was ligated, and each was kept without giving any food or water for 14 hours. Each rat was then slaughtered, and area of ulcer formed in the forestomach was measured and ulceration inded was calculated based on the area. The test compound was administered intraduodenally immediately after the ligation.
as §2

[3] = system: Serotonin-Induced Ulcers; experiment: Serotonin-Induced Ulcers; assay type: in vivo, male Wister rats; settings: Rattus norvegicus, 4.5 h, read-out: Serotonin, inhibiting ratio; for inhibition in vivo at 20 mg/kg: dose 20 mg/kg intraduodenally 30 minutes before Serotonin creatinine sulfate 30 mg/kg subcutaneously; for inhibition in vivo at 50 mg/kg: dose 50 mg/kg intraduodenally 30 minutes before Serotonin creatinine sulfate 30 mg/kg subcutaneously
Description: as §1
To each rat which had been fasted for 24 hours, 30 mg/kg of a solution of serotonin creatinine sulfate in a saline solution was administered subcutaneously. Each rat was then slaughtered after 4 and a half hours and area of gastric mucosal lesion formed facing the center line of greater curvature of the corpus ventriculi of stomach was measured and ulceration index was calculated based on the area. The test compound was administered intraduodenally 30 minutes before the administration of the Serotonin creatinine sulfate.
as §2

[4] = system: Ischemia-Reperfusion-Induced Gastric Lesions; experiment: Ischemia-Reperfusion-Induced Gastric Lesions; assay type: in vivo, male SD rats; settings: dose 40 mg/kg in dimethylsulfoxide from the caudal artery 30 minutes before beginning collection of the blood
Description: as §1
Each rat which had been fasted for 24 hours was anesthetized intraperitoneally with Nembutal and immobilized on a constant temperature pad in a dorsal position. After tracheotomy was performed, blood pressure was measured via a transducer for blood pressure from a cannula inserted in right carotid. The abdomen was opened, and the gastroesophageal junction was ligated. A tube was then passed through the duodenostomy into the stomach and the gastric lumen was lavaged with warm saline. 1 ml of 0.1N hydrochloric acid per 100g body weight was instilled into the stomach via the gastric tube and the pylorus was ligated. When the blood pressure became stable, 2% of weight (w/w) of the blood was collected from a cannula inserted in the left carotid into a syringe containing a heparin added saline solution. After 20 minutes, the collecting blood was retransfused and each rat was left to stand for 20 minutes, and slaughtered and the area of gastric mucosal lesions was measured and ulceration index was calculated based on the area. The test compound was dissolved in dimethylsulfoxide and administered at a dose of 40 mg/kg from the caudal artery 30 minutes before beginning collection of the blood.
as §2

[5] = system: Hydrochloric acid-Ethanol-Induced Ulcers; experiment: Hydrochloric acid-Ethanol-Induced Ulcers; assay type: in vivo, male Wister rats; settings: Rattus norvegicus, intraduodenal, read-out: Inhibition ratio(%); for inhibition in vivo at 10 mg/kg: dose 10 mg/kg intraduodenally one hour before hydrochloric acid - 60% ethanol
Description: as §1
To each rat which had been fasted for 24 hours was orally administered 0.5ml of a mixed solution of 150 mM hydrochloric acid - 60% ethanol per 100g of weight. Each rat was slaughtered after one hour, a length of ulcer formed at the fundus gland area of stomach was measured and ulceration index was calculated based on the length. The test compound was administered intraduodenally one hour or three hours before the administration of mixed solution of hydrochloric acid - 60% ethanol.

[6] = system: Aspirin-Induced Ulcers; experiment: Aspirin-Induced Ulcers; assay type: in vivo, male Wister rats; settings: Rattus norvegicus, 9 h, 5 minutes before 150 mg/kg of aspirin orally, read-out: Aspirin, inhibiting ratio; for inhibition in vivo at 50 mg/kg: dose 50 mg/kg intraduodenally at pylorus ligation
Description: as §1
In each rat which had been fasted for 24 hours, the pyloric end of the stomach was ligated, and simultaneously the test compound was administered intraduodenally, and after 5 minutes, 150 mg/kg of aspirin was administered orally, respectively. After 9 hours from ligation, each rat was slaughtered, a length of ulcer formed at the fundus gland area of stomach was measured and ulceration index was calculated based on the length.
as §2

[7] = 3 h, Table 1, dose 20 mg/kg intraduodenally three hours before hydrochloric acid - 60% ethanol

SMILES | inhibition in vivo at 20 mg/kg [1] [%] | inhibition in vivo at 50 mg/kg [2] [%] | inhibition in vivo at 20 mg/kg [3] [%] | Ischemia-Reperfusion, inhibiting ratio [4] | inhibition in vivo at 20 mg/kg [5, 7] [%] | inhibition in vivo at 50 mg/kg [1] [%] | inhibition in vivo at 50 mg/kg [6] [%] | other results
COC12CC(C)(C)C(O1)C(O)CC2C (stereo not drawn) [AU105B, 2,4-cis-1-methoxy-2,6.6-trimethyl-8-oxabicyclo [3.2.1] octan-4-ol] | 65 | 44 | 80 | 52(40)* | 63 |  |  | inhibition in vivo at 10 mg/kg ([5]; 1 h, Table 2): 86%
CC1=CC(OC(=O)c2ccccc2)C(O)C(C)(C)CC1=O (centres unmarked) [AU190, 4-benzoyloxy-5-hydroxy-2,6,6-trimethyl-2-cyclohepten-1-one] |  | 55 | 69 |  | 66 | 45 | 55 | 
CC1=CC(O)C(OC(=O)C=Cc2ccccc2)C(C)(C)CC1=O (centres unmarked) [AU205, 5-cinnamoyloxy-4-hydroxy-2,6,6-trimethyl-2-cyclohepten-1-one] | 42 | 50 | 80 |  | 83 |  | 53 | 
CC1=CC(OC(=O)c2ccc([N+](=O)[O-])cc2)C(O)C(C)(C)CC1=O (centres unmarked) [AU212, 5-hydroxy-4-(4-nitrobenzoyloxy)-2,6,6-trimethyl-2-cyclohepten-1-one] | 48 | 75 | 71 | 63(40)** | 90 |  |  | inhibition in vivo at 20 mg/kg ([6]; dose 20 mg/kg intraduodenally at pylorus ligation): 46%
CC1=CC(OC(=O)c2ccc(N)cc2)C(O)C(C)(C)CC1=O (centres unmarked) [AU215, 4-(4-aminobenzoyloxy)-5-hydroxy-2,6,6-trimethyl-2-cyclohepten-1-one] | 45 | 73 | 81 | 90(40)** | 56 |  | 66 | 
COC1C(O)C=C(C)C(=O)CC1(C)C (centres unmarked) [AU222, 4-hydroxy-5-methoxy-2,6,6-trimethyl-2-cyclohepten-1-one] | 34 | 58 | 84 |  | 54 |  | 28 | 
COC12CC(C)(C)C(O1)C(OC(=O)c1ccc(N)cc1)C=C2C (centres unmarked) [AU245, 4-(4-aminobenzoyloxy)-1-methoxy-2,6,6-trimethyl-8-oxabicyclo [3.2.1] oct-2-ene] | 38 | 35 | 38 | 93(40)** | 58 |  | 63 | 
COC1C=C(C)C(=O)CC(C)(C)C1OC(=O)c1ccc(N)cc1N (centres unmarked) [AU408, 5-(2,4-diaminobenzoyloxy)-4-methoxy-2,6,6-trimethyl-2-cyclohepten-1-one] |  | 43 | 44 | 75(40)** | 58 | 56 | 73 | 
CC1=CC(OC(=O)c2cccn2C)C(O)C(C)(C)CC1=O (centres unmarked) [AU501, 4-(1-methyl-2-pyrrolylcarbonyloxy)-5-hydroxy-2,6,6-trimethyl-2-cyclohepten-1-one] |  |  |  | 77(40)** | 56 | 22 | 30 | inhibition in vivo at 50 mg/kg [3]: 55%
NC[C@H]1CC[C@H](C(=O)Oc2ccc(CCC(=O)O)cc2)CC1 [Cetraxatehydrochloride, reference compound] |  |  |  |  |  |  |  | inhibition in vivo at 300 mg/kg ([1]; dose 300 mg/kg orally 10 minutes before the exposure to stress): 45%; inhibition in vivo at 300 mg/kg [2]: 11%; inhibition in vivo at 300 mg/kg ([6]; dose 300 mg/kg intraduodenally at pylorus ligation): 33%
CC1=CC(O)C(O)C(C)(C)CC1=O (centres unmarked) [Saishin N, 4,5-dihydroxy-2,6,6-trimethyl-2-cycloheptene-1-one] |  |  | 13 |  | 15 | 49 | 52 | inhibition in vivo at 100 mg/kg ([1]; dose 100 mg/kg orally 10 minutes before the exposure to stress): 62%; inhibition in vivo at 100 mg/kg ([2]; dose 100 mg/kg intraduodenally immediately after the ligation): 49%; inhibition in vivo at 300 mg/kg [2]: 58%; inhibition in vivo at 50 mg/kg [3]: 36%; inhibition in vivo at 100 mg/kg ([6]; dose 100 mg/kg intraduodenally at pylorus ligation): 60%; inhibition in vivo at 10 mg/kg ([5]; 1 h, Table 2): 35%; inhibition in vivo at 20 mg/kg ([5]; 1 h, Table 2, dose 20 mg/kg intraduodenally one hour before hydrochloric acid - 60% ethanol): 88%; inhibition in vivo at 50 mg/kg ([5]; 3 h, Table 1, dose 50mg/kg intraduodenally three hours before hydrochloric acid - 60% ethanol): 83%
